Data set [1] addresses T1, human SGLT2 (Homo sapiens, UniProt P31639).
T1 construct: expressed in transfected cells; host or cells: CHOK1 (CHO-K1) cells, kept under Geneticin selection
T1 sequence (P31639 1-672): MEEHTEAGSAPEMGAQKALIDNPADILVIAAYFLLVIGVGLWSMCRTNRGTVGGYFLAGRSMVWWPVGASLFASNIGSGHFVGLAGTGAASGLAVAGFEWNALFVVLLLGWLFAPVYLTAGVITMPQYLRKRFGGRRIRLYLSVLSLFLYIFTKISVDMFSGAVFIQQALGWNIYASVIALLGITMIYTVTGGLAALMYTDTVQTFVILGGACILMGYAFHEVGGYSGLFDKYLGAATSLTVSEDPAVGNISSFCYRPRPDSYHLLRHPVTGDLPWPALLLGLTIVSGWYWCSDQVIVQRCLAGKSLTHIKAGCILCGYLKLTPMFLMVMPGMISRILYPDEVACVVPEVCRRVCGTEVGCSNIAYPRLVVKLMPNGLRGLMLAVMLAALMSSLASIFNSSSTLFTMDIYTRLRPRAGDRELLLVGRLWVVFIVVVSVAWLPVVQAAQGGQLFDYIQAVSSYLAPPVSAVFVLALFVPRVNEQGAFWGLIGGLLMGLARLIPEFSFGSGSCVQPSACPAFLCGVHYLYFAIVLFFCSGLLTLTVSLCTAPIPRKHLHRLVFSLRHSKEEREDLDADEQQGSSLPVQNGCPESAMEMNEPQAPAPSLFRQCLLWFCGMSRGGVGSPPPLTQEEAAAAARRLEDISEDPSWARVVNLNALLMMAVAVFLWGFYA
Put plainly: Assay for SGLT2 inhibition (14C-AMG uptake in CHOK1 cells expressing human SGLT2). Particulars: CHOK1 cells expressing human SGLT2; 14C-AMG uptake 0.5 mM, 2 hours at 37° C.; read-out: IC50. It is filed as cell-based. The procedure: 1. Assay for SGLT2 Inhibition
Compounds described in the above examples were used for the SGLT2 inhibition assay.
CHOK1 cells expressing human SGLT2 were seeded in 24-well plates at a density of 400,000 cells/well in F-12 nutrient mixture (Ham's F-12) containing 10% fetal bovine serum, 400 μg/ml Geneticin, 50 units/ml sodium penicillin G (Gibco-BRL) and 50 μg/ml streptomycin sulfate. […] Test compounds were dissolved in DMSO. The final concentration of DMSO was 0.5%. The transport reaction was initiated by addition of 50 μl [^14C]-methyl-α-D-glucopyranoside (^14C-AMG) solution (final concentration, 0.5 mM). After incubation for 2 hours at 37° C., the uptake was stopped by aspiration of the incubation mixture, the cells were washed three times with ice-cold PBS. Then, cells were solubilized with 0.3 N NaOH and aliquots were taken for determination of radioactivity by a liquid scintillation counter. Nonspecific AMG uptake was defined as that which occurred in the presence of 100 μM of phlorizin, a specific inhibitor of sodium-dependent glucose cotransporter. Specific uptake was normalized for the protein concentrations measured by the method of Bradford.

Data set [2] has as its system Sprague-Dawley (SD) rats. Nature of the data set: Urinary glucose excretion test in rats. It is filed as in vivo, rat. The settings on record: male SD rats, 30 mg/kg oral gavage, urine collected for 24 hours; daily amount of glucose excreted per individual. The procedure:
2. Urinary Glucose Excretion Test in Rats Test Compounds:
Compounds described in the above examples were used for the urinary glucose excretion test in rats.
6-week-old male Sprague-Dawley (SD) rats were housed in individual metabolic cages with free access to food and water from 2 days prior to the experiment. On the morning of the experiment, rats were administered vehicle (0.2% carboxymethyl cellulose solution containing 0.2% Tween80) or test compounds (30 mg/kg) by oral gavage at a volume of 10 ml/kg. Then, urine of the rat was collected for 24 hours, and the urine volume was measured. Subsequently, the glucose concentration in urine was quantified using the enzymatic assay kit and the daily amount of glucose excreted in urine per individual was calculated.

Take `Cc1ccc([C@@H]2O[C@H](CO)[C@@H](O)[C@H](O)[C@H]2O)cc1Cc1ccc(-c2ccc(F)c(F)c2)s1` [Example 177, 1-(β-D-glucopyranosyl)-3-(5-(3,4-difluorophenyl)-2-thienylmethyl)-4-methylbenzene]: in data set [1], the IC50 amounted to 6.7 nM. Further, the Urinary glucose result in data set [2] is recorded as “A (A≧2000 mg)”.

In the case of `Cc1ccc([C@@H]2O[C@H](CO)[C@@H](O)[C@H](O)[C@H]2O)cc1Cc1ccc(-c2cccc(C#N)c2)s1` [Example 127, 1-(β-D-glucopyranosyl)-3-(5-(3-cyanophenyl)-2-thienylmethyl)-4-methylbenzene], the IC50 in data set [1] worked out at 1.3 nM. For the same compound, in data set [2], the Urinary glucose result is “A (A≧2000 mg)”.

`OC[C@H]1O[C@@H](c2ccc(F)c(Cc3ccc(-c4nccs4)s3)c2)[C@H](O)[C@@H](O)[C@@H]1O` [Example 190, 1-(β-D-glucopyranosyl)-4-fluoro-3-(5-(2-thiazolyl)-2-thienylmethyl)benzene] showed a melting point of 161.5 to 162 °C. In addition, the IC50 in data set [1] turned out to be 3.1 nM.

As to `COc1ccc(-c2ccc(Cc3cc([C@@H]4O[C@H](CO)[C@@H](O)[C@H](O)[C@H]4O)ccc3C)s2)cc1` [Example 144], in data set [1], the IC50 came out at 4.1 nM. Moreover, in data set [2], the Urinary glucose entry is “B (2000 mg>B≧1000 mg)”.

On to `COc1cccc(-c2ccc(Cc3cc([C@@H]4O[C@H](CO)[C@@H](O)[C@H](O)[C@H]4O)ccc3Cl)s2)n1` [Example 170, 1-(β-D-glucopyranosyl)-4-chloro-3-(5-(6-methoxy-2-pyridyl)-2-thienylmethyl)benzene], for which the IC50 in data set [1] is 3.5 nM. In data set [2], the Urinary glucose result is given as “B (2000 mg>B≧1000 mg)”.

Regarding `OC[C@H]1O[C@@H](c2ccc(Cl)c(Cc3ccc(-c4ccc(F)cn4)s3)c2)[C@H](O)[C@@H](O)[C@@H]1O` [Example 194, 1-(β-D-glucopyranosyl)-4-chloro-3-(5-(5-fluoropyridin-2-yl)-2-thienylmethyl)benzene], in data set [1], the IC50 was determined as 2.6 nM. The Urinary glucose entry in data set [2] is listed as “A (A≧2000 mg)”.

With `Cc1ccc([C@@H]2O[C@H](CO)[C@@H](O)[C@H](O)[C@H]2O)cc1Cc1ccc(-c2ccc(F)s2)s1` [Example 148], the IC50 in data set [1] turned out to be 2.8 nM. For the same compound, in data set [2], the Urinary glucose entry is listed as “B (2000 mg>B≧1000 mg)”.

Turning to `N#Cc1cccc(-c2ccc(Cc3cc([C@@H]4O[C@H](CO)[C@@H](O)[C@H](O)[C@H]4O)ccc3Cl)s2)c1` [Example 123, 1-(β-D-glucopyranosyl)-4-chloro-3-(5-(3-cyanophenyl)-2-thienylmethyl)benzene], the IC50 in data set [1] worked out at 1.4 nM. For the same compound, in data set [2], the Urinary glucose result is “A (A≧2000 mg)”.

For `CCc1cccc(-c2ccc(Cc3cc([C@@H]4O[C@H](CO)[C@@H](O)[C@H](O)[C@H]4O)ccc3C)s2)c1` [Example 140], the IC50 in data set [1] is 5.9 nM. In addition, in data set [2], the Urinary glucose result is on record as “B (2000 mg>B≧1000 mg)”.

On to `COc1ccc(-c2ccc(Cc3cc([C@@H]4O[C@H](CO)[C@@H](O)[C@H](O)[C@H]4O)ccc3Cl)s2)cn1` [Example 169, 1-(β-D-glucopyranosyl)-4-chloro-3-(5-(6-methoxy-3-pyridyl)-2-thienylmethyl)benzene], for which the IC50 in data set [1] was 3.6 nM. For the same compound, the Urinary glucose result in data set [2] is “B (2000 mg>B≧1000 mg)”.

As to `Cc1ccc([C@@H]2O[C@H](CO)[C@@H](O)[C@H](O)[C@H]2O)cc1Cc1ccc(-c2ccc(F)nc2)s1` [Example 120, 1-(β-D-glucopyranosyl)-3-(5-(6-fluoro-3-pyridyl)-2-thienylmethyl)-4-methylbenzene], the IC50 in data set [1] came out at 3.4 nM. For the same compound, the Urinary glucose result in data set [2] is “A (A≧2000 mg)”.

With `OC[C@H]1O[C@@H](c2ccc(Cl)c(Cc3ccc(-c4ccc(F)nc4)s3)c2)[C@H](O)[C@@H](O)[C@@H]1O` [Example 168, 1-(β-D-glucopyranosyl)-4-chloro-3-(5-(6-fluoro-3-pyridyl)-2-thienylmethyl)benzene], the IC50 in data set [1] was 2.3 nM. Further, the Urinary glucose result in data set [2] is on record as “A (A≧2000 mg)”.

On to `N#Cc1cccc(-c2ccc(Cc3cc([C@@H]4O[C@H](CO)[C@@H](O)[C@H](O)[C@H]4O)ccc3F)s2)c1` [Example 189, 1-(β-D-glucopyranosyl)-4-fluoro-3-(5-(3-cyanophenyl)-2-thienylmethyl)benzene], for which the melting point was 127 to 129 °C. In addition, in data set [1], the IC50 was determined as 2.4 nM. In data set [2], the Urinary glucose entry is listed as “B (2000 mg>B≧1000 mg)”.

For the origin of these results see patent US8222219B2, “Glucopyranoside compound” (Mitsubishi Tanabe Pharma Corporation, priority 2003, dated 2012).
